The values below come from EP4763839A1 (Pamplona Therapeutics (Shenzhen) Co., Ltd., priority 2023, dated 2025).

The DC50 is the concentration at which degradation of the target reaches its halfway point. By Dmax is commonly meant the greatest extent of degradation seen.

In the assay the target is T1, IRAK4 (Homo sapiens, UniProt Q9NWZ3).
T1 sequence (Q9NWZ3 1-460): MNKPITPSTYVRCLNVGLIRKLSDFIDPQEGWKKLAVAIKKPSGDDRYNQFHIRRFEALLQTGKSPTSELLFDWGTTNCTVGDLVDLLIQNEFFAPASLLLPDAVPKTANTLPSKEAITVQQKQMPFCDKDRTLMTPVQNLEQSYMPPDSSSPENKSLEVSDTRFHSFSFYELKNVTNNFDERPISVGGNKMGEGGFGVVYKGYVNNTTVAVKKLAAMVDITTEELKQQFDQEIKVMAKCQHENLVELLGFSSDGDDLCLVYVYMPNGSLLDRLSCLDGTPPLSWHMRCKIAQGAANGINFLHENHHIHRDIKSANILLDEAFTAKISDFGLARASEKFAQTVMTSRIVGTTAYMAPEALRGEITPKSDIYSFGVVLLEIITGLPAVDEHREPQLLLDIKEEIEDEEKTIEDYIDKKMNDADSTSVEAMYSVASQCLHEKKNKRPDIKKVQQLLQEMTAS
In words: Degradation of IRAK4 in THP1 cells, Western blot. To be noted: THP-1 cells, 24 hours of incubation; for DC50: IRAK4 protein by Western blot, read-out: DC50; for Dmax: maximum degradation rate, read-out: Dmax. Set-up: Degradation of IRAK4 in THP1 by compound; host or cells: THP-1. It counts as cell-based. How it is done: After 24 hours of incubation, the cells were collected into 1.5 mL centrifuge tubes and centrifuged at 1,000 rpm for 5 minutes. […] The supernatants were collected, and the IRAK4 protein levels were respectively detected by Western blot (WB). The total protein concentration in the cell lysate supernatant was determined using a BCA protein quantification kit (NCM). Based on the total protein concentration detected by BCA, the samples were adjusted to 2 μg/μL using cell lysis buffer and 5×SDS-PAGE protein loading buffer (Beyotime), heated at 95°C for 5 minutes in a metal bath, and then placed on ice for an ice bath for 5 minutes before being used as the loading samples for Western blot analysis. Protein electrophoresis was performed using a 10% SDS-PAGE gel with a loading volume of 20 μL (total protein 40 μg) and Tris-SDS electrophoresis at a constant voltage of 80 V. After electrophoresis, the proteins on the gel were transferred to a 0.2 μm PVDF membrane (Immobilon) using a semi-dry transfer method at 0.5 A and 20 V for 60 minutes. After transfer, the membrane was placed in 5% skimmed milk and incubated at rt for 2 hours. After blocking, the PVDF membrane was incubated with primary antibody against IRAK4 (Abcam) at 4°C overnight. […] The color development and protein band imaging were performed using a chemiluminescence imaging system ([…] Technology Co., Ltd.). The protein bands were analyzed for grayscale values using Image J analysis software. The corrected grayscale values for each sample were calculated and then compared with those of the control group treated with DMSO alone to calculate the degradation rate.

Where a name gives a salt, the structure may show the parent alone. Where only a bound is given, the exact number is not on record here.

`NC(=O)c1nn(-c2ccc(N3CCN(CC4CCN(c5ccc(NC6CCC(=O)NC6=O)cc5F)C4)CC3)cc2)cc1NC(=O)c1cccc(C(F)(F)F)n1` (centres unmarked) [Compound A361, N-(3-Carbamoyl-1-(4-(4-((1-(4-((2,6-dioxopiperidin-3-yl)amino)-2-fluorophenyl)pyrrolidin-3-yl)methyl)piperazin-1-yl)phenyl)-1H-pyrazol-4-yl)-6-(trifluoromethyl)picolinamide formate]: the 50% degradation concentration (DC50) fell in the range of 0.1 to 1 µM and the greatest degradation seen (Dmax) is 40 to 60%.

Regarding `CC(C)(O)c1nn(-c2ccc(N3CCN(C4CCN(c5ccc(NC6CCC(=O)NC6=O)cc5F)CC4)CC3)cc2)cc1NC(=O)c1cccc(C(F)(F)F)n1` (centres unmarked) [Compound A439, N-(1-(4-(4-(1-(-4-((2,6-Dioxopiperidin-3-yl)amino)-2-fluorophenyl)piperidin-4-yl)piperazin-1-yl)phenyl)-3-(2-hydroxypropan-2-yl)-1H-pyrazol-4-yl)-6-(trifluoromethyl)picolinamide], the DC50 is below 0.1 µM and the Dmax was above 60%.

For the compound `COc1ccc(C(=O)N2CCC3(CC2)CC(Cc2ccc(-n4cc(NC(=O)c5cccc(C(F)(F)F)n5)c(C(N)=O)n4)cc2)C3)cc1N1CCC(=O)NC1=O` [Compound A318, N-(3-Carbamoyl-1-(4-((7-(3-(2,4-dioxotetrahydropyrimidin-1(2H)-yl)-4-methoxybenzoyl)-7-azaspiro[3.5]nonan-2-yl)methyl)phenyl)-1H-pyrazol-4-yl)-6-(trifluoromethyl)picolinamide], the DC50 was below 0.1 µM and the Dmax is above 60%.

With `Cn1c(=O)n(C2CCC(=O)NC2=O)c2cccc(C#CCCN3CCN(C(=O)c4ccc(-n5cc(NC(=O)c6cccc(-c7ccn[nH]7)n6)c(S(N)(=O)=O)n5)cc4)CC3)c21` (centres unmarked) [Compound A336], the DC50 is below 0.1 µM and the Dmax was above 60%.

Consider `Cn1c(=O)n(C2CCC(=O)NC2=O)c2cccc(NCCN3CC4CN(Cc5ccc(-n6cc(NC(=O)c7cccc(-c8ccn[nH]8)n7)c(S(N)(=O)=O)n6)cc5)CC4C3)c21` (centres unmarked) [Compound A338], for which the DC50 is below 0.1 µM and the Dmax was above 60%.

With `Cn1c(=O)n(C2CCC(=O)NC2=O)c2cccc(N3CCC4(CC3)CC(NC(=O)c3ccc(-n5cc(NC(=O)c6cccc(C(F)(F)F)n6)c(C(N)=O)n5)cc3)C4)c21` (centres unmarked) [Compound A320], the DC50 was below 0.1 µM and the Dmax is above 60%.

For `COc1ccc(C(=O)N2CCC(CCN3CCN(c4ccc(-n5cc(NC(=O)c6cccc(C(F)(F)F)n6)c(C(C)(C)O)n5)cc4)CC3)CC2)cc1N1CCC(=O)NC1=O` [Compound A454, N-(1-(4-(4-(2-(1-(3-(2,4-Dioxotetrahydropyrimidin-1(2H)-yl)-4-methoxybenzoyl)piperidin-4-yl)ethyl)piperazin-1-yl)phenyl)-3-(2-hydroxypropan-2-yl)-1H-pyrazol-4-yl)-6-(trifluoromethyl)picolinamide], the DC50 was below 0.1 µM and the Dmax was above 60%.

With `Cn1c(=O)n(C2CCC(=O)NC2=O)c2cccc(NCCN3CC4(C3)CN(C(=O)c3ccc(-n5cc(NC(=O)c6cccc(-c7ccn[nH]7)n6)c(S(N)(=O)=O)n5)cc3)C4)c21` (centres unmarked) [Compound A343], the DC50 was below 0.1 µM and the Dmax was above 60%.

With `Cn1c(=O)n(C2CCC(=O)NC2=O)c2cccc(N3CCC4(CC3)CN(C(=O)Cc3ccc(-n5cc(NC(=O)c6cccc(C(F)(F)F)n6)c(C(N)=O)n5)cc3)C4)c21` (centres unmarked) [Compound A321, N-(3-Carbamoyl-1-(4-(2-(7-(1-(2,6-dioxopiperidin-3-yl)-3-methyl-2-oxo-2,3-dihydro-1H-benzimidazol-4-yl)-2,7-diazaspiro[3.5]nonan-2-yl)-2-oxoethyl)phenyl)-1H-pyrazol-4-yl)-6-(trifluoromethyl)picolinamide], the DC50 is below 0.1 µM and the maximal degradation (Dmax) was above 60%.

With `CC(C)(O)c1nn(-c2ccc(N3CCN(C4CCN(c5ccc(OC6CCC(=O)NC6=O)cn5)CC4)CC3)cc2)cc1NC(=O)c1cccc(C(F)(F)F)n1` (centres unmarked) [Compound A440, N-(1-(4-(4-(1-(5-((2,6-Dioxopiperidin-3-yl)oxy)pyridin-2-yl)piperidin-4-yl)piperazin-1-yl)phenyl)-3-(2-hydroxypropan-2-yl)-1H-pyrazol-4-yl)-6-(trifluoromethyl)picolinamide], the DC50 was below 0.1 µM and the Dmax was above 60%.

As for `Cn1c(=O)n(C2CCC(=O)NC2=O)c2cccc(N3CCC(N4CCN(Cc5ccc(-n6cc(NC(=O)c7cccc(-c8ccn[nH]8)n7)c(S(N)(=O)=O)n6)cc5)CC4)CC3)c21` (centres unmarked) [Compound A352], the DC50 is below 0.1 µM and the Dmax was above 60%.

`Cn1c(=O)n(C2CCC(=O)NC2=O)c2ccc(N3CCC(CN4CCN(c5ccc(-n6cc(NC(=O)c7cccc(C(F)(F)F)n7)c(C(N)=O)n6)cc5)CC4)C3)cc21` (centres unmarked) [Compound A304, N-(3-carbamoyl-1-(4-(4-((1-(1-(2,6-dioxopiperidin-3-yl)-3-methyl-2-oxo-2,3-dihydro-1H-benzo[d]imidazol-5-yl)pyrrolidin-3-yl)methyl)piperazin-1-yl)phenyl)-1H-pyrazol-4-yl)-6-(trifluoromethyl)picolinamide]: the DC50 was below 0.1 µM and the Dmax was 40 to 60%.

Turning to `Cn1c(-c2ccc(N3CCC(CCN4CCN(c5ccc(-n6cc(NC(=O)c7cccc(C(F)(F)F)n7)c(C(N)=O)n6)cc5)CC4)C3)cc2)nn(C2CCC(=O)NC2=O)c1=O` (centres unmarked) [Compound A185], the DC50 was below 0.1 µM and the Dmax is 40 to 60%.

As for `CC(C)(O)c1nn(-c2ccc(N3CCN(CC4CCN(c5ccc(NC6CCC(=O)NC6=O)cc5F)CC4)CC3)cc2)cc1NC(=O)c1cccc(C#N)n1` (centres unmarked) [Compound A386, 6-Cyano-N-(1-(4-(4-((1-(4-((2,6-dioxopiperidin-3-yl)amino)-2-fluorophenyl)piperidin-4-yl)methyl)piperazin-1-yl)phenyl)-3-(2-hydroxypropan-2-yl)-1H-pyrazol-4-yl)picolinamide], the DC50 is above 1 µM and the Dmax was below 40%.

As for `Cn1c(=O)n(C2CCC(=O)NC2=O)c2cccc(N3CCC(CN4CCN(c5ccc(-n6cc(NC(=O)c7cccc(-c8ccn[nH]8)n7)c(S(N)(=O)=O)n6)cc5)CC4)CC3)c21` (centres unmarked) [Compound A327, N-(1-(4-(4-((1-(1-(2,6-dioxopiperidin-3-yl)-3-methyl-2-oxo-2,3-dihydro-1H-benzo[d]imidazol-4-yl)piperidin-4-yl)methyl)piperazin-1-yl)phenyl)-3-sulfamoyl-1H-pyrazol-4-yl)-6-(1H-pyrazol-5-yl)picolinamide], the DC50 was below 0.1 µM and the Dmax was above 60%.

In the case of `CC(C)(O)c1nn(-c2ccc(N3CCN(CC4CCN(c5ccc(NC6CCC(=O)NC6=O)cc5F)CC4)CC3)cc2)cc1NC(=O)c1cncc(C#N)c1` (centres unmarked) [Compound A385, 5-Cyano-N-(1-(4-(4-((1-(4-((2,6-dioxopiperidin-3-yl)amino)-2-fluorophenyl)piperidin-4-yl)methyl)piperazin-1-yl)phenyl)-3-(2-hydroxypropan-2-yl)-1H-pyrazol-4-yl)nicotinamide], the DC50 was above 1 µM and the Dmax is below 40%.

On to `Cn1c(=O)n(C2CCC(=O)NC2=O)c2cccc(N3CCC(N4CCN(Cc5ccc(-n6cc(NC(=O)c7cccc(C(F)(F)F)n7)c(C(N)=O)n6)cc5)CC4)CC3)c21` (centres unmarked) [Compound A373, N-(3-Carbamoyl-1-(4-(4-(1-(1-(2,6-dioxopiperidin-3-yl)-3-methyl-2-oxo-2,3-dihydro-1H-benzo[d]imidazol-4-yl)piperidin-4-yl)piperazin-1-yl)methyl)phenyl)-1H-pyrazol-4-yl)-6-(trifluoromethyl)picolinamide formate], for which the DC50 was below 0.1 µM and the Dmax was above 60%.

With `NC(=O)c1nn(-c2ccc(N3CCN(C4CCN(c5ccc(C(=O)NC6CCC(=O)NC6=O)nc5)CC4)CC3)cc2)cc1NC(=O)c1cccc(C(F)(F)F)n1` (centres unmarked) [Compound A379, N-(3-Carbamoyl-1-(4-(4-(1-(6-((2,6-dioxopiperidin-3-yl)carbamoyl)pyridin-3-yl)piperidin-4-yl)piperazin-1-yl)phenyl)-1H-pyrazol-4-yl)-6-(trifluoromethyl)picolinamide], the DC50 is below 0.1 µM and the Dmax was above 60%.

In the case of `CC(C)(O)c1nn(-c2ccc(N3CCN(CC4CCN(c5ccc(OC6CCC(=O)NC6=O)cn5)CC4)CC3)cc2)cc1NC(=O)c1cccc(C(F)(F)F)n1` (centres unmarked) [Compound A437], the DC50 was below 0.1 µM and the Dmax is above 60%.
